The source made the active and inactive calls. Rule as the data show it, for most assays here: actives have a measured EC50 and inactives only a lower limit.

The term AC50 denotes the concentration at which the activity in the assay is half-maximal.

For one test, the target named is T1, Heat shock factor protein 1 (Mus musculus, UniProt P38532).
T1 sequence (P38532 whole entry): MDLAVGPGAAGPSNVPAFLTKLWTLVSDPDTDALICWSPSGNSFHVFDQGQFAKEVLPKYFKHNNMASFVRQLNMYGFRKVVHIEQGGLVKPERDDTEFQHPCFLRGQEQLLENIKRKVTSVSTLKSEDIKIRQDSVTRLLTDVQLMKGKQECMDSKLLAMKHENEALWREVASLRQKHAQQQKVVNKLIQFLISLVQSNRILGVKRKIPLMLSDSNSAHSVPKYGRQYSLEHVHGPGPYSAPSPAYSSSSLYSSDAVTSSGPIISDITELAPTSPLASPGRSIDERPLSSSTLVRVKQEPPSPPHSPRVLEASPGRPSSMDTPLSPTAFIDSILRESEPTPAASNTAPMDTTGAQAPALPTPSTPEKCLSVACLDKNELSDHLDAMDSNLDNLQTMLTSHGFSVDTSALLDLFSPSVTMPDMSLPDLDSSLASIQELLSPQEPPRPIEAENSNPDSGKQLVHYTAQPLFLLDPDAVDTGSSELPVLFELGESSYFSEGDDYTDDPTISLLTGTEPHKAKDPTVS
The experiment in a line: HSF1 potentiators in luciferase reporter cells, confirmation, cell-based, NIH3T3, luminescence, dose retest (AID 435004).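 Also: stress induced by proteasome inhibitor MG132 added 30 min after compound; luciferase reporter driven by HSF1 response element in NIH3T3 cells; actives raise luminescence as potentiators of the MG132 stress response.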 It is filed as functional.
Settings: not given
(In general: Reporter assays use an easily measured gene product as a stand-in for the process of interest.)
In the case of `Cc1ccc(NC(=O)N2CCCC2C(=O)Nc2c(C)cc(C)cc2C)cc1` (centres undefined), the EC50 is > 260 µM (inactive).
Still for that read-out and setting: then `O=Nc1c(-c2ccccc2)[nH]n(-c2ccccc2)c1=O`, with 3.87 µM (active).

In another test the target is Luciferin 4-monooxygenase (Photinus pyralis, UniProt P08659). Kind of test: firefly luciferase enzyme inhibitors, dose response, biochemical, luminescence (AID 1891).
Sequence of Luciferin 4-monooxygenase (P08659 whole entry): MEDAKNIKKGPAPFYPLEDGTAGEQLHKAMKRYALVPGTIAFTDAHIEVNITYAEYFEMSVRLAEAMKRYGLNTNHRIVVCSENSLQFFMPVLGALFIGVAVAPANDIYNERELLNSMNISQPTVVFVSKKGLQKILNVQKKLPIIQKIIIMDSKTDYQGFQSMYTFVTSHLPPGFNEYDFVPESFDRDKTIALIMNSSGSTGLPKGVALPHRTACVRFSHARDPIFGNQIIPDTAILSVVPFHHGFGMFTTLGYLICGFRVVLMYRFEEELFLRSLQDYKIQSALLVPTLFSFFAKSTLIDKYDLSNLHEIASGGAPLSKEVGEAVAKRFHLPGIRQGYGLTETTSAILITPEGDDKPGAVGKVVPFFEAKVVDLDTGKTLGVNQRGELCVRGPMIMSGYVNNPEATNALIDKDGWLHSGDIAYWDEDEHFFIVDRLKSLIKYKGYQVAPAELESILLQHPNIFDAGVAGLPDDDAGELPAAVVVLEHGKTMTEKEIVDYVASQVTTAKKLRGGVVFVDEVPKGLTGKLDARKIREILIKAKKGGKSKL
Settings: not given
As to `COC(=O)c1sccc1NC(=O)Nc1ccc(OC)cc1`, the EC50 is 0.358 µM (active).
Regarding `CCN(CC)S(=O)(=O)c1cccc(NC(=O)COC(=O)CCC(=O)c2ccc(F)cc2)c1`, the EC50 is > 112 µM (not active).
Regarding `COC(=O)c1ccc(Oc2nc(C)cc(Oc3ccccc3)n2)cc1`, the EC50 was > 112 µM (not active).
Turning to `Cc1onc(C(=O)Nc2ccc3c(c2)OCO3)c1[N+](=O)[O-]`, the EC50 is listed as > 112 µM (not active).
For the molecule `O=S(=O)(Nc1cccc(-c2ccc3nncn3n2)c1)c1cc(F)ccc1F`, the EC50 is > 112 µM (not active).
Take `Cc1c(C#N)c(N)nc2c3c(sc12)NC(=O)CC3c1ccc(F)cc1` (centres undefined): the EC50 is given as > 112 µM (not active).
Still for that read-out and setting: then `CCCCOC(=O)N/N=C/C=C/c1ccccc1`, with > 112 µM (not active).
In the case of `Cc1ccsc1/C=N/N1CCN(C2c3ccccc3-c3ccccc32)CC1`, the EC50 was > 112 µM (not active).

Tested on in a further test: not listed separately
Kind of test: inhibitors of clade B AD8 Env fusion, dose response, cell-based, cherry-pick (AID 652062).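 Also: luciferase signal from cell-cell fusion driven by HIV-1 clade B AD8 Env; potency is for inhibitors of fusion seen as a drop in luminescence.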 Type of test: functional.
Settings: not given
With `COc1cccc(S(=O)(=O)N2CC3(CN(C(=O)Nc4cccc(F)c4)[C@H](CO)c4[nH]c5cc(OC)ccc5c43)C2)c1`, the concentration at half-maximal activity (AC50) was 22 µM (active).

Tested on in a further test: not listed separately
Kind of test: Luminescence Cell-Based Dose Confirmation HTS to Identify Inhibitors of Platelet Dense Granule Release. [Related pubchem assays: 1663 (Primary HTS), 1678 (Summary of Project)]. It is filed as functional.
Settings: not given
As to `COC(=O)c1sccc1NC(=O)Nc1ccc(OC)cc1`, the EC50 was 1.33 µM (active).
The same measure, in the same setting: then `CCN(CC)S(=O)(=O)c1cccc(NC(=O)COC(=O)CCC(=O)c2ccc(F)cc2)c1`, with > 112 µM (not active); and `COC(=O)c1ccc(Oc2nc(C)cc(Oc3ccccc3)n2)cc1`, with > 112 µM (not active); and `Cc1onc(C(=O)Nc2ccc3c(c2)OCO3)c1[N+](=O)[O-]`, with > 112 µM (not active).
Take `O=S(=O)(Nc1cccc(-c2ccc3nncn3n2)c1)c1cc(F)ccc1F`: the EC50 is given as > 112 µM (not active).
As to `Cc1c(C#N)c(N)nc2c3c(sc12)NC(=O)CC3c1ccc(F)cc1` (centres undefined), the EC50 was > 112 µM (not active).
Still for that read-out and setting: then `CCCCOC(=O)N/N=C/C=C/c1ccccc1`, with > 112 µM (not active).
Same read-out and setting: next, `Cc1ccsc1/C=N/N1CCN(C2c3ccccc3-c3ccccc32)CC1`: > 112 µM (not active).

The target of a further test is T2, Corticotropin-releasing factor receptor 2/Corticotropin-releasing factor-binding protein (Homo sapiens, UniProt P24387+Q13324).
T2 sequence (Q13324 whole entry): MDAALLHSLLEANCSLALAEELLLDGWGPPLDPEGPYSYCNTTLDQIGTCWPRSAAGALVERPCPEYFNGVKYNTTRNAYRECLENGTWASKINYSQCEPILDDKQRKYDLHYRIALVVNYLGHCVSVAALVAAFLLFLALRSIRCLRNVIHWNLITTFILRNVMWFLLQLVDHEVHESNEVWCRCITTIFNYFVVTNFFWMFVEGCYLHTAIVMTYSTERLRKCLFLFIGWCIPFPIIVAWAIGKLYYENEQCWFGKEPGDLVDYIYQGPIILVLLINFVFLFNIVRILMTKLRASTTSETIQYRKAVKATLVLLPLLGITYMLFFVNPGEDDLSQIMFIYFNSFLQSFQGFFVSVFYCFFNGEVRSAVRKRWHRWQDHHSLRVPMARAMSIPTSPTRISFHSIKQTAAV
T2 sequence (P24387 whole entry): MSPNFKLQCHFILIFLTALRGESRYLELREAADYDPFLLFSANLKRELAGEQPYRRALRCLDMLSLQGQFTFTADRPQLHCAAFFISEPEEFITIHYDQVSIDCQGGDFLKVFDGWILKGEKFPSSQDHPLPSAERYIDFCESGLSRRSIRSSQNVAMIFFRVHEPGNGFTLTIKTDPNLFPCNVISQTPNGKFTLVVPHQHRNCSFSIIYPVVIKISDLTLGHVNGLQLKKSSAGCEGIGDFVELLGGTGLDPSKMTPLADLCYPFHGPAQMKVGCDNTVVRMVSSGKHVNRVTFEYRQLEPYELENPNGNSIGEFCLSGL
The experiment in a line: activators of CRF receptor 2 with binding protein – uHTS hits, confirmation (AID 602473). Type of test: functional. Conditions: read-out: EC50_Mean.
For `CCOc1ccc(C2C(C#N)=C(N)N3C(=C2C#N)Sc2ccccc23)cc1` (centres undefined), the EC50 is 8.06 µM (active).
Same read-out and setting: next, `CC1(c2ccc(OC(F)F)cc2)NC(=O)N(CC(=O)Nc2cccnc2Cl)C1=O` (centres undefined): 15 µM (active); `CCc1ccccc1/N=C/c1c(C)c(C#N)c2nc3ccccc3n2c1O`: 4.75 µM (active).

In another test the test system is H4. The experiment in a line: Luminescence Cell-Based Dose Response HTS to Identify Activators of 5'UTR Stem-Loop Driven Prion Protein mRNA Translation in H4 Neuroglioblastoma Cells. [Related pubchem assays: 1829 (Project Summary), 1814 (Primary HTS)]. Conditions: Homo sapiens. It is filed as functional.
In the case of `C=C1CCC2[C@](C)(CO)[C@H](O)CC[C@@]2(C)[C@@H]1C/C=C1\C(=O)OC[C@H]1O` (some centres undefined), the EC50 was 33 µM (active).

Tested on in another test: not listed separately
Kind of test: Luminescence Cell-Based Dose Response HTS to Identify Activators of Luciferase Translation or Activity in H4 […] Cells. [Related pubchem assays: 1829 (Project Summary), 1814 (Primary HTS)].
Settings: not given
Type of test: functional.
With `C=C1CCC2[C@](C)(CO)[C@H](O)CC[C@@]2(C)[C@@H]1C/C=C1\C(=O)OC[C@H]1O` (some centres undefined), the EC50 is given as > 120 µM (not active).
